Test systems include BT-549; MDA-N; T47D.
Assay in all cases: inhibition of tumour cell growth, NCI panel, 48 h

SMILES strings stand for the structures.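 The compound was tested at five concentrations on cells cultured in 96-well plates, with a 48-hour exposure period. GI50: concentration for 50% inhibition of growth.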 Calls of active or inactive are those of the source. No stated cut-off is given here; in the data, active = GI50 up to about 1.1 µM and inactive = higher.

As for `O=c1n(Cc2ccccc2)c(=O)n2c(=O)n(Cc3ccccc3)c(=O)n12`, the GI50 with BT-549, with MDA-N and in the test on T47D was > 100 µM (inactive) each time.
With `CN(CCCCN(C)CCc1ccc(Cl)c(Cl)c1)CCCCN1CCCC1`, the GI50 in the test with BT-549 was 1.87 µM (inactive); in the test with MDA-N it was 1.26 µM (inactive); in the test with T47D, 2 µM (inactive).
`CC(=O)NC1C(OCc2ccccc2)OC(CO)C(O)C1OCC(=O)N[C@@H](C)C(=O)N[C@H](CCC(=O)NCCCCNc1c2ccccc2nc2cccc([N+](=O)[O-])c12)C(N)=O` (some centres undefined): the GI50 in the test with BT-549 is 2.74 µM (inactive); in the test on MDA-N, 1.64 µM (inactive); in the test with T47D, 1.61 µM (inactive).
For the compound `Cc1c(S(=O)(=O)N/C(=N\O)Nc2ccc(Cl)c(Cl)c2)sc2ccc(Cl)cc12`, the GI50 is 17.7 µM (inactive) with BT-549, 17.5 µM (inactive) in the test with MDA-N and 14.4 µM (inactive) with T47D.
In the same order, the values of `Brc1ccc(-c2cn3ccncc3n2)cc1` are > 100 µM (inactive), > 100 µM (inactive) and > 100 µM (inactive).
In the same order, the values of `COc1cc2c3c(n(C)c(=O)c2cc1OC)-c1cc2c(cc1/C3=C\CCCI)OCO2` are 1.7 µM (inactive), > 70.8 µM (inactive) and 0.7 µM (active).
For `CC(C)(C)[Si](C)(C)OCC1CCC(n2cnc3c(NC(=O)c4ccccc4)ncnc32)O1` (centres undefined), the GI50 is 17.2 µM (inactive) in the test on MDA-N and 26.4 µM (inactive) in the test with T47D.
`Cc1c(-c2ccccc2)c(-c2ccc(OCCN(C)C)cc2)n2ccccc12`: the GI50 is 5.65 µM (inactive) with BT-549, 4.37 µM (inactive) in the test on MDA-N and 10.4 µM (inactive) with T47D.
For the compound `COC1=C(OC)C(=O)C(Sc2ccc3ccccc3c2)=CC1=O`, the GI50 in the test with BT-549 was 9.2 µM (inactive); in the test on T47D it was 5.58 µM (inactive).
In the case of `CCCCCCCCCCCCCCCCOCC(CCl)OP(=O)(O)OP(=O)(O)OCC1OC(n2ccc(N)nc2=O)C(O)C1O` (centres undefined), the GI50 in the test on BT-549, with MDA-N and in the test on T47D was > 100 µM (inactive) in each case.
Turning to `CC1(C=O)CCC23COC4(CCC5C6(C)CCC(OC7OCC(OC8OC(CO)C(O)C(OC9OC(CO)C(O)C(O)C9O)C8OC8OCC(O)C(O)C8O)C(O)C7OC7OC(CO)C(O)C(O)C7O)C(C)(C)C6CCC5(C)C4(C)CC2O)C3C1` (centres undefined), the GI50 is 1.57 µM (inactive) in the test with BT-549, 0.557 µM (active) in the test with MDA-N and 1.61 µM (inactive) in the test on T47D.
As to `Cc1c(-c2ccccc2)c(C#N)c2nnn(-c3ccc(Cl)cc3)c(=O)n12`, the GI50 with BT-549 was 56.8 µM (inactive); in the test on MDA-N it was 24.2 µM (inactive); in the test with T47D it was 6.14 µM (inactive).
Consider `C/N=C/N(C)c1c2ccccc2nc2ccccc12`, for which the values for the GI50 in the test on MDA-N and with T47D were > 100 µM (inactive) and 85.7 µM (inactive), respectively.
`O=C1CC(C(OCc2ccccc2)C(OCc2ccccc2)C(COCc2ccccc2)OCc2ccccc2)CC(=O)N1` (centres undefined): the GI50 in the test on BT-549 is > 100 µM (inactive); in the test on MDA-N, > 75 µM (inactive); in the test with T47D it was 26.1 µM (inactive).
For the compound `BrC1(c2ccccc2)C[n+]2c(-c3ccccc3)cc(-c3ccccc3)cc2-c2ccccc21` (centres undefined), the GI50 with BT-549 is 0.407 µM (active); in the test on MDA-N, 0.327 µM (active).
`CCOC1CN=C(Nc2cccc3ccccc23)S1` (centres undefined): the GI50 in the test with BT-549, with MDA-N and with T47D was > 10 µM (inactive) each time.
Consider `O=C1c2ccccc2-c2nc(-c3ccncc3)cc3c2c1nc1ccccc13`, for which the figures for the GI50 in the test on BT-549 and in the test with MDA-N were 40.1 µM (inactive) and 17.4 µM (inactive), respectively.
In the same order, the values of `O=C(O)c1cc2cc(c1)/N=C/c1ccccc1OCc1cccc(n1)COc1ccccc1/C=N/2` are 23.6 µM (inactive) and 4.53 µM (inactive).
With `COC(=O)C#CC1(O)C=CC(=O)C=C1`, the GI50 was 1.01 µM (active) in the test with BT-549, 1.18 µM (inactive) in the test on MDA-N and 0.583 µM (active) with T47D.
Regarding `CCN(CC)CCN(C)c1ccc(CO)c2c1c(=O)c1ccccc1[s+]2[O-]` (centres undefined), the GI50 with BT-549 was 13.8 µM (inactive); in the test on T47D it was 13.4 µM (inactive).
In the case of `CCOC(=O)c1cc(=O)c2ccnc3c2n1CCS3`, the GI50 in the test with BT-549 was 62.2 µM (inactive); with MDA-N, > 100 µM (inactive); in the test on T47D, 17.6 µM (inactive).
On to `CCCCSC1=N/C(=C\c2ccccc2O)C(Cl)=N1`, for which the GI50 in the test with BT-549, in the test on MDA-N and with T47D was > 100 µM (inactive) each time.
In the case of `O=C1NC(N2CCCCC2)=N/C1=C\c1ccc(Cl)cc1`, the GI50 in the test with BT-549 is 71.4 µM (inactive); in the test on MDA-N, 71 µM (inactive); with T47D, 41.5 µM (inactive).
In the same order, the values of `CNC(C#N)c1ccc(OC)cc1` (centres undefined) are > 100 µM (inactive), 33.1 µM (inactive) and 61.5 µM (inactive).
Consider `CN(C)C1(C(=O)O)CC1`, for which the GI50 with MDA-N and in the test with T47D was > 100 µM (inactive) each time.
As for `CC(C)(C)OC(=O)NC(CSCc1ccc(C(=O)c2ccccc2)cc1)C(=O)O` (centres undefined), the GI50 with BT-549 and in the test on MDA-N was > 100 µM (inactive) each time.
Regarding `CCN(CC)C1CCC(C2c3cc4c(cc3OC(N3CCOCC3)C2C)OCO4)CC1` (centres undefined), the GI50 with BT-549 was 16.9 µM (inactive); in the test with MDA-N it was 4.28 µM (inactive); in the test with T47D it was 14.4 µM (inactive).
Turning to `O=[N+]([O-])c1cccc2nc3ccccc3c(NCCCN3CCCCC3)c12`, the GI50 in the test with BT-549 was 0.0286 µM (active); with MDA-N, 0.0102 µM (active); with T47D, 0.0179 µM (active).
In the same order, the values of `CCOC(=O)c1cnccc1CC1(C#N)c2ccccc2C=CN1C(=O)c1ccccc1` (centres undefined) are 51.6 µM (inactive), 18.1 µM (inactive) and 24.4 µM (inactive).
In the same order, the values of `N=c1oc2ccc(Cl)cc2cc1C(N)=O` are 35.2 µM (inactive), 25.1 µM (inactive) and 24.8 µM (inactive).
For `O=c1[nH]c(=O)n(C2CC(O)C(CO)O2)cc1OCCCc1ccccc1` (centres undefined) the same measures were > 100 µM (inactive), > 100 µM (inactive) and > 100 µM (inactive).
With `N#[N+]c1cc2c(cc1Br)-c1ccccc1C2`, the GI50 is 70 µM (inactive) in the test on BT-549 and > 100 µM (inactive) with T47D.
With `O=C(c1ccc(Cl)cc1)C(O)c1ccc(Cl)cc1` (centres undefined), in the test with BT-549, the GI50 was 53.8 µM (inactive).
As to `O=C1c2ccccc2C(=O)N1n1c(Cc2ccccc2)n[nH]c1=O`, the GI50 in the test on BT-549, in the test with MDA-N and with T47D was > 100 µM (inactive) throughout.
For the compound `Cc1[nH]c2ncn3[nH]c(=S)nc3c2c1Cc1ccccc1`, the values for the GI50 in the test on BT-549 and with T47D were > 100 µM (inactive) and 28.8 µM (inactive), respectively.
With `CC(=O)O[C@H]1CC[C@@]2(C)C(=C[C@H](c3ccc(O)cc3)[C@H]3[C@@H]4CC[C@H](OC(C)=O)[C@@]4(C)CC[C@@H]32)C1`, the GI50 with BT-549 was 14.2 µM (inactive).
In the case of `COC(=O)C1=C(C)NC(=O)N2[C@@H](CCOCc3ccccc3)CC[C@@H]12`, the GI50 was > 50 µM (inactive) in the test on MDA-N and 12.4 µM (inactive) in the test with T47D.
As for `CC(C)CC1c2[nH]c3ccccc3c2C[C@H]2C(=O)NC(Cc3c[nH]c4ccccc34)C(=O)N12` (some centres undefined), the GI50 is 16.9 µM (inactive) with BT-549 and 6.61 µM (inactive) with T47D.
With `O=c1c2cc([N+](=O)[O-])ccc2n2n1CCCC2`, the GI50 with MDA-N and with T47D was > 100 µM (inactive) throughout.

The values above are taken from ChEMBL document CHEMBL1201862, “PubChem BioAssay data set” (2004).
